Source: patent publication US20050009840A1 (SUGEN, INC., priority 2003, published 2005)

The compounds below were run against T1, HGFR (Homo sapiens, UniProt P08581) (assay: HGFR continuous-coupled spectrophotometric assay). Conditions: Table 3, column 'Ki (μM) or I (%)': cells without % sign; read-out: Ki.
T1 construct: purchased Upstate 14-526
Format: biochemical

T1 sequence (P08581 974-1390 limits assumed): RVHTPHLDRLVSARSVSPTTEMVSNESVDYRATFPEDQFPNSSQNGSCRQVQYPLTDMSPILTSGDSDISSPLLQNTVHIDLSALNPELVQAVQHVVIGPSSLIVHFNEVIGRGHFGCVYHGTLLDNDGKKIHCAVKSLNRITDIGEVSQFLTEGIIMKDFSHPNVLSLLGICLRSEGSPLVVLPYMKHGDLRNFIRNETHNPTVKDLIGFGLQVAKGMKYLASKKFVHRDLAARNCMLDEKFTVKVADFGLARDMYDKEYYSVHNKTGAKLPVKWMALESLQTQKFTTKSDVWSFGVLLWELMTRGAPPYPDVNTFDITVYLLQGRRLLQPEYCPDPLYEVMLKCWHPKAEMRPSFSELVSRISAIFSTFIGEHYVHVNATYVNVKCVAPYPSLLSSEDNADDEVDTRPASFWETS

Row | Ki [µM] | Compound
1 | 0.0475 | CC(Oc1cc(-c2ccc(C(=O)N3CCNCC3)cc2)cnc1N)c1c(Cl)ccc(F)c1Cl (centres unmarked) [Example I-605, (4-{6-Amino-5-[1-(2,6-dichloro-3-fluoro-phenyl)-ethoxy]-pyridin-3-yl}-phenyl)-piperazin-1-yl-methanone]
2 | 0.655 | C=Cc1cnc(N)c(OC(C)c2c(Cl)ccc(F)c2Cl)c1 (centres unmarked) [Example I-606, 3-[1-(2,6-Dichloro-3-fluoro-phenyl)-ethoxy]-5-vinyl-pyridin-2-ylamine]
3 | 0.058 | CC(Oc1cc(-c2ccc(C(=O)N3C[C@@H](O)[C@@H](O)C3)cc2)cnc1N)c1c(Cl)ccc(F)c1Cl (stereo partly drawn) [Example I-607, (4-{6-Amino-5-[1-(2,6-dichloro-3-fluoro-phenyl)-ethoxy]-pyridin-3-yl}-phenyl)-((3R,4S)-3,4-dihydroxy-pyrrolidin-1-yl)-methanone]
4 | 0.045 | CC(Oc1cc(-c2ccc(C(=O)NC3CNC3)cc2)cnc1N)c1c(Cl)ccc(F)c1Cl (centres unmarked) [Example I-609, 4-{6-Amino-5-[1-(2,6-dichloro-3-fluoro-phenyl)-ethoxy]-pyridin-3-yl}-N-azetidin-3-yl-benzamide]
5 | 0.069 | CC(Oc1cc(-c2ccc(S(=O)(=O)N(C)C)cc2)cnc1N)c1c(Cl)ccc(F)c1Cl (centres unmarked) [Example I-610, 4-{6-Amino-5-[1-(2,6-dichloro-3-fluoro-phenyl)-ethoxy]-pyridin-3-yl}-N,N-dimethyl-benzenesulfonamide]
6 | 0.375 | CCN1CCN(C(=O)c2ccc(-c3cnc(N)c(OC(C)c4c(F)ccc(F)c4Cl)c3)cc2)CC1 (centres unmarked) [Example I-622, (4-{6-Amino-5-[1-(2-chloro-3,6-difluoro-phenyl)-ethoxy]-pyridin-3-yl}-phenyl)-(4-ethyl-piperazin-1-yl)-methanone]
7 | 0.0554 | CC(Oc1cc(-c2ccc(C(=O)N3CC4C(N)C4C3)cc2)cnc1N)c1c(Cl)ccc(F)c1Cl (centres unmarked) [Example I-635, (6-Amino-3-aza-bicyclo[3.1.0]hex-3-yl)-(4-{6-amino-5-[1-(2,6-dichloro-3-fluoro-phenyl)-ethoxy]-pyridin-3-yl}-phenyl)-methanone]
8 | 0.109 | CC(Oc1cc(-c2ccc(OCCN3CCOCC3)nc2)cnc1N)c1c(Cl)ccc(F)c1Cl (centres unmarked) [Example I-636, 5-[1-(2,6-Dichloro-3-fluoro-phenyl)-ethoxy]-6′-(2-morpholin-4-yl-ethoxy)-[3,3′]bipyridinyl-6-ylamine]
9 | 0.692 | CC(Oc1cc(-c2ccc(=O)n(CCN3CCCC3)c2)cnc1N)c1c(Cl)ccc(F)c1Cl (centres unmarked) [Example I-637, 6′-Amino-5′-[1-(2,6-dichloro-3-fluoro-phenyl)-ethoxy]-1-(2-pyrrolidin-1-yl-ethyl)-1H-[3,3′]-bipyridinyl-6-one]
10 | 0.094 | CC(Oc1cc(-c2ccc(OCCN3CCCC3)nc2)cnc1N)c1c(Cl)ccc(F)c1Cl (centres unmarked) [Example I-638, 5-[1-(2,6-Dichloro-3-fluoro-phenyl)-ethoxy]-6′-(2-pyrrolidin-1-yl-ethoxy)-[3,3′]bipyridinyl-6-ylamine]
11 | 0.513 | CC(Oc1cc(-c2ccc(=O)n(CCC3CCCN3C)c2)cnc1N)c1c(Cl)ccc(F)c1Cl (centres unmarked) [Example I-639, 6′-Amino-5′-[1-(2,6-dichloro-3-fluoro-phenyl)-ethoxy]-1-[2-(1-methyl-pyrrolidin-2-yl)-ethyl]-1H-[3,3′]bipyridinyl-6-one]
12 | 0.0432 | CC(Oc1cc(-c2ccc(O)nc2)cnc1N)c1c(Cl)ccc(F)c1Cl (centres unmarked) [Example I-643, 6′-Amino-5′-[1-(2,6-dichloro-3-fluoro-phenyl)-ethoxy]-1H-[3,3′]-bipyridinyl-6-one]
13 | 0.196 | CC(Oc1cc(-c2cncc(Br)c2)cnc1N)c1c(Cl)ccc(F)c1Cl (centres unmarked) [Example I-644, 5′-Bromo-5-[1-(2,6-dichloro-3-fluoro-phenyl)-ethoxy]-[3,3′]bipyridinyl-6-ylamine]
14 | 0.157 | CC(Oc1cc(-c2ccc(N(C)C)cc2)cnc1N)c1c(Cl)ccc(F)c1Cl (centres unmarked) [Example I-645, 3-[1-(2,6-Dichloro-3-fluoro-phenyl)-ethoxy]-5-(4-dimethylamino-phenyl)-pyridin-2-ylamine]
15 | 0.099 | COc1ncccc1-c1cnc(N)c(OC(C)c2c(Cl)ccc(F)c2Cl)c1 (centres unmarked) [Example I-646, 5-[1-(2,6-Dichloro-3-fluoro-phenyl)-ethoxy]-2′-methoxy-[3,3′]bipyridinyl-6-ylamine]
16 | 0.166 | CC(Oc1cc(-c2ccc3[nH]ccc3c2)cnc1N)c1c(Cl)ccc(F)c1Cl (centres unmarked) [Example I-647, 3-[1-(2,6-Dichloro-3-fluoro-phenyl)-ethoxy]-5-(1H-indol-5-yl)-pyridin-2-ylamine]
17 | 0.553 | CCC(Oc1cc(-c2ccc(C(=O)N3C[C@@H](C)N[C@@H](C)C3)cc2)cnc1N)c1c(Cl)cccc1Cl (some centres unmarked) [Example I-648, (4-{6-Amino-5-[1-(2,6-dichloro-phenyl)-propoxy]-pyridin-3-yl}-phenyl)-(3,5-dimethyl-piperazin-1-yl)-methanone]

Same assay, conditions: at 50 nM; Table 5, library procedure 40; read-out: % inhibition (percent c-MET inhibition)

Row | inhibition at 0.05 µM [%] | Compound
18 | 58 | CC(Oc1cc(-c2ccc(C(=O)NCCC3CCCN3C)cc2)cnc1N)c1c(Cl)ccc(F)c1Cl [Example L-1]
19 | 59 | CC(Oc1cc(-c2ccc(C(=O)NCCCN3CCOCC3)cc2)cnc1N)c1c(Cl)ccc(F)c1Cl [Example L-2]
20 | 63 | CC(Oc1cc(-c2ccc(C(=O)NCCCN3CCN(C)CC3)cc2)cnc1N)c1c(Cl)ccc(F)c1Cl [Example L-3]
21 | 47 | CC(Oc1cc(-c2ccc(C(=O)NC3CCN(Cc4ccccc4)CC3)cc2)cnc1N)c1c(Cl)ccc(F)c1Cl [Example L-4]
22 | 68 | CC(Oc1cc(-c2ccc(C(=O)NCCCO)cc2)cnc1N)c1c(Cl)ccc(F)c1Cl [Example L-5]
23 | 69 | CC(Oc1cc(-c2ccc(C(=O)NCCN3CCCCC3)cc2)cnc1N)c1c(Cl)ccc(F)c1Cl [Example L-6]
24 | 66 | CC(CO)NC(=O)c1ccc(-c2cnc(N)c(OC(C)c3c(Cl)ccc(F)c3Cl)c2)cc1 [Example L-7]
25 | 72 | CC(Oc1cc(-c2ccc(C(=O)NCCCN3CCCCC3C)cc2)cnc1N)c1c(Cl)ccc(F)c1Cl [Example L-8]
26 | 64 | CC(Oc1cc(-c2ccc(C(=O)NCc3cccnc3)cc2)cnc1N)c1c(Cl)ccc(F)c1Cl [Example L-9]
27 | 67 | CC(Oc1cc(-c2ccc(C(=O)NCc3ccccn3)cc2)cnc1N)c1c(Cl)ccc(F)c1Cl [Example L-10]
28 | 67 | CC(Oc1cc(-c2ccc(C(=O)NCCc3ccccn3)cc2)cnc1N)c1c(Cl)ccc(F)c1Cl [Example L-11]
29 | 76 | CC(Oc1cc(-c2ccc(C(=O)NCCOCCO)cc2)cnc1N)c1c(Cl)ccc(F)c1Cl [Example L-13]
30 | 72 | CC(Oc1cc(-c2ccc(C(=O)N[C@H]3CCN(Cc4ccccc4)C3)cc2)cnc1N)c1c(Cl)ccc(F)c1Cl (stereo partly drawn) [Example L-14]
31 | 67 | CC(Oc1cc(-c2ccc(C(=O)N[C@@H]3CCN(Cc4ccccc4)C3)cc2)cnc1N)c1c(Cl)ccc(F)c1Cl (stereo partly drawn) [Example L-15]
32 | 83 | CC(Oc1cc(-c2ccc(C(=O)NCCCN(C)C)cc2)cnc1N)c1c(Cl)ccc(F)c1Cl [Example L-16]
33 | 76 | CC(Oc1cc(-c2ccc(C(=O)NC3CCN(Cc4ccccc4)C3)cc2)cnc1N)c1c(Cl)ccc(F)c1Cl [Example L-17]
34 | 66 | CC(Oc1cc(-c2ccc(C(=O)NCCc3ccccc3)cc2)cnc1N)c1c(Cl)ccc(F)c1Cl [Example L-18]
35 | 69 | C[C@H](Oc1cc(-c2ccc(C(=O)N[C@H](CO)c3ccccc3)cc2)cnc1N)c1c(Cl)ccc(F)c1Cl [Example L-20]

Row | inhibition at 0.05 µM [%] | Compound
36 | 86 | CC(Oc1cc(-c2ccc(C(=O)NCC(N)=O)cc2)cnc1N)c1c(Cl)ccc(F)c1Cl [Example L-21]
37 | 64 | COc1cc(CNC(=O)c2ccc(-c3cnc(N)c(OC(C)c4c(Cl)ccc(F)c4Cl)c3)cc2)ccc1O [Example L-22]
38 | 71 | CC(=O)NCCNC(=O)c1ccc(-c2cnc(N)c(OC(C)c3c(Cl)ccc(F)c3Cl)c2)cc1 [Example L-24]
39 | 77 | CC(Oc1cc(-c2ccc(C(=O)NCC(C)(C)CN(C)C)cc2)cnc1N)c1c(Cl)ccc(F)c1Cl [Example L-25]
40 | 92 | CC(Oc1cc(-c2ccc(C(=O)N3CCC(N(C)C)CC3)cc2)cnc1N)c1c(Cl)ccc(F)c1Cl [Example L-26]
41 | 74 | CC(Oc1cc(-c2ccc(C(=O)NCc3ccncc3)cc2)cnc1N)c1c(Cl)ccc(F)c1Cl [Example L-27]
42 | 64 | CC(Oc1cc(-c2ccc(C(=O)N3CCC(O)(c4ccccc4)CC3)cc2)cnc1N)c1c(Cl)ccc(F)c1Cl [Example L-28]
43 | 86 | CC(Oc1cc(-c2ccc(C(=O)N3CCC(O)CC3)cc2)cnc1N)c1c(Cl)ccc(F)c1Cl [Example L-29]
44 | 80 | CCN1CCCC1CNC(=O)c1ccc(-c2cnc(N)c(OC(C)c3c(Cl)ccc(F)c3Cl)c2)cc1 [Example L-30]
45 | 92 | CC(Oc1cc(-c2ccc(C(=O)N(C)C3CCN(C)CC3)cc2)cnc1N)c1c(Cl)ccc(F)c1Cl [Example L-32]
46 | 63 | CC(Oc1cc(-c2ccc(C(=O)N3CCN(c4ccccn4)CC3)cc2)cnc1N)c1c(Cl)ccc(F)c1Cl [Example L-33]
47 | 62 | COc1ccc(CNC(=O)c2ccc(-c3cnc(N)c(OC(C)c4c(Cl)ccc(F)c4Cl)c3)cc2)cc1OC [Example L-34]
48 | 55 | CC(Oc1cc(-c2ccc(C(=O)NCCc3ccccc3F)cc2)cnc1N)c1c(Cl)ccc(F)c1Cl [Example L-35]
49 | 62 | CC(Oc1cc(-c2ccc(C(=O)N3CCN(Cc4ccccc4)CC3)cc2)cnc1N)c1c(Cl)ccc(F)c1Cl [Example L-36]
50 | 75 | CC(Oc1cc(-c2ccc(C(=O)N(C)CCc3ccccn3)cc2)cnc1N)c1c(Cl)ccc(F)c1Cl [Example L-37]
51 | 86 | CC(C)NC(=O)CN1CCN(C(=O)c2ccc(-c3cnc(N)c(OC(C)c4c(Cl)ccc(F)c4Cl)c3)cc2)CC1 [Example L-38]
52 | 77 | CC(Oc1cc(-c2ccc(C(=O)N3CCCN(C)CC3)cc2)cnc1N)c1c(Cl)ccc(F)c1Cl [Example L-39]
53 | 55 | CC(Oc1cc(-c2ccc(C(=O)N3CCC(Cc4ccccc4)CC3)cc2)cnc1N)c1c(Cl)ccc(F)c1Cl [Example L-40]
